Laboratory results taken from patent US6740523B2 (priority 1997, dated 2004).

Assays:
HCT116 cells = assay type: cell-based, human
[1] = tested on: σ expression in HCT116 and other CRC cell lines; test: Northern blot of σ expression following adriamycin treatment; assay type: cell-based, human; conditions: 0.2 ug/ml adriamycin
Description: (FIG. 1B) σ Expression following adriamycin treatment. Seven different CRC cell lines were treated with 0.2 ug/ml adriamycin (+) or vehicle (−) as indicated. RNA was prepared 24 hours following adriamycin treatment. Autoradiographs of Northern blots performed with σ, p21 and EF1 probes are shown. The p53 status of the respective cell lines is indicated on the top.
Northern blotting with a radiolabeled probe generated from σ cDNA was performed to confirm the SAGE results. […] Previous reports have shown that σ expression is limited to epithelial cells.
Total RNA was prepared by CsCl gradient ultracentrifugation of guanidine isothiocyanate-lysed cells as described. […].

Structure (SMILES)	effect on polyploidization of Ad-σ infected cells (HCT116 cells)	induction of σ expression ([1]; HCT116 cells, RNA 24 hours after treatment)	σ expression in other colorectal cancer cell lines ([1]; several other CRC cell lines, 24 hours)
CN[C@H]1CCc2cc(OC)c(OC)c(OC)c2-c2ccc(OC)c(=O)cc21 [colcemid]	did not prevent this polyploidization	–	–
COc1cccc2c1C(=O)c1c(O)c3c(c(O)c1C2=O)C[C@@](O)(C(=O)CO)C[C@@H]3O[C@H]1C[C@H](N)[C@H](O)[C@H](C)O1 [adriamycin]	–	similarly induce σ expression	express σ at relatively high levels
